# Where two headings read alike, the source gives them in different places. Residues, ends and D or L forms follow the SMILES beside them. No end group written: not given here.
# Experiments:
# E. coli ATCC25922 [1] = tested on: E. coli ATCC25922
# Description: The minimum inhibitory concentrations (MICs) of the AMPs were measured in 96-well microtiter plates according to the Clinical and Laboratory Standards Institute (CLSI, formerly National Committee for Clinical Laboratory Standards [NCCLS]). Briefly, liquid Mueller-Hinton-II medium containing increasing concentrations of AMPs is inoculated with a defined number of cells (approx. 10^5 CFUs/ml) in 96-well microtiter plates (polypropylene), whereas each plate also includes a positive growth control and a negative control (sterile control). After incubation, the MIC is determined by the lowest concentration showing no visible growth. All plates were incubated for 18–20 hours, except the F. psychrophilum plates which were incubated for 72 hours. […]
# ATCC25922 ΔrfaE = format: cell-based, Escherichia coli; conditions: E. coli ATCC25922 ΔrfaE; CLSI; triplicates
# From the text: (§1) The Yersinia ruckeri strain was kindly provided by Prof. Kurt Buchmann, University of Copenhagen, Faculty of Health and Medical Sciences, and the Flavobacterium psychrophilum strain was kindly provided by Prof. Inger Dalsgaard, DTU, Denmark. BW25113 is the Escherichia coli wild-type strain, a derivative of the F^-,λ^- E. coli K12 strain BD792 which was used in generating the KEIO collection. E. coli ATCC25922 is a clinical isolate, serotype O6 and is often used as control strain in antimicrobial susceptibility testing. All strains were grown in Mueller-Hinton-II medium, except L. monocytogenes which was grown in BHI medium and F. psychrophilum which was grown in TYES medium (Tryptone yeast extract plus salts). Incubation took place aerobically at 37°C, except for Y. ruckeri and A. salmonicida, which were grown aerobically at RT (20°C), C. jejuni NCTC11168 which was grown under microaerophilic conditions at 42°C and F. psychrophilum 1947 which was grown under aerobic conditions at 15°C. All plates were incubated for 18–20 hours, except the F. psychrophilum plates, which were incubated for 72 hours.
# (§2) The minimum inhibitory concentrations (MICs) of the AMPs were measured in 96-well microtiter plates according to the Clinical and Laboratory Standards Institute (CLSI, formerly National Committee for Clinical Laboratory Standards [NCCLS]). Briefly, liquid Mueller-Hinton-II medium containing increasing concentrations of AMPs is inoculated with a defined number of cells (approx. 10^5 CFUs/ml) in 96-well microtiter plates (polypropylene), whereas each plate also includes a positive growth control and a negative control (sterile control). After incubation, the MIC is determined by the lowest concentration showing no visible growth. All plates were incubated for 18–20 hours, except the F. psychrophilum plates which were incubated for 72 hours.
# (§3) Construction of knock-out mutants of E. coli ATCC25922 were constructed using the λ-Red recombinase gene replacement system. Primers for amplification of the npt gene of pKD4 are listed in S1 Table. The correct double-crossover and recombination event was confirmed by primers listed in S1 Table and by sequencing. Finally, the kanamycin cassette was removed.
# ATCC25922 ΔrfaF = format: cell-based, Escherichia coli; conditions: E. coli ATCC25922 ΔrfaF; CLSI; triplicates
# From the text: as §1, §2, §3
# ATCC25922 ΔrfaC = format: cell-based, Escherichia coli; conditions: E. coli ATCC25922 ΔrfaC; CLSI; triplicates
# From the text: as §1, §2, §3
# ATCC25922 ΔrfaG = format: cell-based, Escherichia coli; conditions: E. coli ATCC25922 ΔrfaG; CLSI; triplicates
# From the text: as §1, §2, §3
# E. coli ATCC25922 [2] = format: cell-based, Escherichia coli
# From the text: as §1
# All plates were incubated for 18–20 hours, except the F. psychrophilum plates which were incubated for 72 hours.
# All the MIC measurements were carried out in duplicate.
# BW25113 ΔrfaC = format: cell-based, Escherichia coli; conditions: E. coli BW25113 ΔrfaC; CLSI; triplicates
# From the text: as §1, §2
# BW25113 ΔrfaE = format: cell-based, Escherichia coli; conditions: E. coli BW25113 ΔrfaE; CLSI; triplicates
# From the text: as §1, §2
# BW25113 ΔrfaG = format: cell-based, Escherichia coli; conditions: E. coli BW25113 ΔrfaG; CLSI; triplicates
# From the text: as §1, §2
# BW25113 ΔrfaF = format: cell-based, Escherichia coli; conditions: E. coli BW25113 ΔrfaF; CLSI; triplicates
# From the text: as §1, §2
# BW25113 wild-type = assay: MIC in LPS backgrounds; format: cell-based, Escherichia coli; conditions: E. coli BW25113 wild-type; CLSI; triplicates
# From the text: as §1, §2
# horse erythrocytes = assay: Cytotoxicity assay: haemoglobin release (hemolytic activity); format: cell-based; conditions: washed horse erythrocytes 10% (v/v) in PBS, 60 min 37°C, absorbance 540 nm, relative to full lysis by 0.2% Triton X-100, average ± SD of duplicates
# Description: The cytotoxicity for each AMP was determined spectrophotometrically by measuring the haemoglobin release from horse erythrocytes. Briefly, fresh defibrinated horse blood was washed three times with PBS, centrifuged for 15 minutes at 1000g and resuspended at 10% (v/v) in PBS. Samples of the washed horse erythrocytes (100 μl) were transferred to a 96 well microtiter plate and mixed with 100 μl AMP solution. PBS was used as a negative control, and 0.2% TritonX-100 was used as a positive control. The microtiter plates were incubated for 60 minutes at 37°C and then centrifuged for 10 minutes at 1300g. The supernatants were transferred to a flat-bottom 96 well polystyrene microtiter plate and the haemoglobin release was monitored by measuring the absorbance at 540 nm. The percentage of hemolysis was calculated as 100 *(Asample−APBS)/(ATritonX-100 –APBS), where Asample is the experimental absorbance of the peptide sample, APBS is the control absorbance of untreated erythrocytes, and ATritonX-100 is the absorbance of 0.2% TritonX-100 lysed cells.
Compound,Antimicrobial Activity MIC (E. coli ATCC25922 [1]) [µg/mL],Antimicrobial Activity MIC (ATCC25922 ΔrfaE) [µg/mL],Antimicrobial Activity MIC (ATCC25922 ΔrfaF) [µg/mL],Antimicrobial Activity MIC (ATCC25922 ΔrfaC) [µg/mL],Antimicrobial Activity MIC (ATCC25922 ΔrfaG) [µg/mL],Antimicrobial Activity MIC (E. coli ATCC25922 [2]) [µg/mL],Antimicrobial Activity MIC (BW25113 ΔrfaC) [µg/mL],Antimicrobial Activity MIC (BW25113 ΔrfaE) [µg/mL],Antimicrobial Activity MIC (BW25113 ΔrfaG) [µg/mL],Antimicrobial Activity MIC (BW25113 ΔrfaF) [µg/mL],Antimicrobial Activity MIC (BW25113 wild-type) [µg/mL],Hemolytic Activity (horse erythrocytes; peptide 128 μg/ml) [%],Hemolytic Activity (horse erythrocytes; peptide 256 μg/ml) [%]
CC[C@H](C)[C@H](NC(=O)CNC(=O)[C@H](CCC(=O)O)NC(=O)[C@H](CO)NC(=O)[C@@H](NC(=O)[C@H](CCCNC(=N)N)NC(=O)[C@H](CCCCN)NC(=O)[C@H](CCCCN)NC(=O)[C@H](C)NC(=O)[C@H](CO)NC(=O)[C@H](CC(N)=O)NC(=O)[C@H](CCC(=O)O)NC(=O)[C@H](CC(C)C)NC(=O)[C@H](CCCCN)NC(=O)[C@H](CCCCN)NC(=O)[C@H](C)NC(=O)[C@@H](NC(=O)[C@H](CCCCN)NC(=O)[C@H](CO)NC(=O)[C@H](CC(C)C)NC(=O)[C@H](Cc1c[nH]c2ccccc12)NC(=O)[C@@H](N)CO)[C@@H](C)O)[C@@H](C)CC)C(=O)N[C@@H](C)C(=O)N[C@H](C(=O)N[C@@H](C)C(=O)N[C@H](C(=O)N[C@@H](CCC(N)=O)C(=O)NCC(=O)NCC(=O)N1CCC[C@H]1C(=O)N[C@@H](CCCNC(=N)N)C(=O)O)[C@@H](C)CC)[C@@H](C)CC [Cecropin P1] (H-SWLSKTAKKLENSAKKRISEGIAIAIQGGPR-OH),16,8,8,8,16,32,8,8,16,4,16 to 32,–,–
"CC[C@H](C)[C@H](NC(=O)CN)C(=O)NCC(=O)N[C@@H](C)C(=O)N[C@H](C(=O)N[C@@H](CC(C)C)C(=O)N[C@@H](CCCCN)C(=O)N[C@H](C(=O)N[C@@H](CC(C)C)C(=O)N[C@H](C(=O)N[C@H](C(=O)NCC(=O)N[C@@H](CC(C)C)C(=O)N1CCC[C@H]1C(=O)N[C@@H](C)C(=O)N[C@@H](CC(C)C)C(=O)N[C@H](C(=O)N[C@@H](CO)C(=O)N[C@@H](Cc1c[nH]c2ccccc12)C(=O)N[C@H](C(=O)N[C@@H](CCCCN)C(=O)N[C@@H](CCCNC(=N)N)C(=O)N[C@@H](CCCCN)C(=O)N[C@@H](CCCNC(=N)N)C(=O)N[C@@H](CCC(N)=O)C(=O)N[C@@H](CCC(N)=O)C(N)=O)[C@@H](C)CC)[C@@H](C)CC)[C@@H](C)O)[C@@H](C)O)C(C)C)C(C)C [Melittin, reference compound]",–,2,2,2,4,–,4,4,4,4,16 to 32,110 ± 1,–
CC[C@H](C)[C@H](NC(=O)[C@@H]1CCCN1C(=O)[C@H](CCCNC(=N)N)NC(=O)[C@@H]1CCCN1C(=O)[C@@H]1CCCN1C(=O)[C@@H](NC(=O)[C@@H]1CCCN1C(=O)[C@H](CCCNC(=N)N)NC(=O)[C@@H]1CCCN1C(=O)[C@H](CC(C)C)NC(=O)[C@H](Cc1ccc(O)cc1)NC(=O)[C@H](CO)NC(=O)CNC(=O)[C@H](CCCCN)NC(=O)[C@H](CC(=O)O)NC(=O)[C@@H](N)C(C)C)[C@@H](C)O)C(=O)N[C@@H](Cc1ccc(O)cc1)C(=O)N[C@@H](CC(N)=O)C(=O)N[C@@H](CCCNC(=N)N)C(=O)N[C@@H](CC(N)=O)C(=O)O [Pyrrhocoricin] (H-VDKGSYLPRPTPPRPIYNRN-OH),–,–,–,–,–,–,–,–,–,–,–,–,0 ± 0
GLRKKFRKTRKRIQKLGRKIGKTGRKVWKAWREYGQIPYPCRI [Cap11],8,4,4,4,8,16,8,8,8,8,8,–,–

# From PMC4684357, “Comparative Evaluation of the Antimicrobial Activity of Different Antimicrobial Peptides against a Range of Pathogenic Bacteria” (PLoS ONE, 2015)
